Experimental data as given in US20230181602A1, “TREATMENT OF NON-ALCOHOLIC STEATOHEPATITIS (NASH)” (DURECT CORPORATION, priority 2020, published 2023).
Marks after values point to notes of the source that are not given here.

Key:
[1] = system: NASH patients with stage 1-3 fibrosis; assay: Phase 1b study in NASH patients, 4-week daily oral dosing: pharmacodynamic signals; type: in vivo, human; settings: for Mean Non-HDL to Baseline / Mean TG to Baseline / Median Non-HDL to Baseline / Median TG to Baseline: day 28 after dosing
Description: (§1) A total of 63 patients completed the study with 21 patients per dose group (completion of MRI-PDFF measurement). 25HC3 S sodium was orally administered daily at 50 mg, 150 mg, or 600 mg (300 mg BID). […] Subjects provided written informed consent to participate in the study • 2. Males or females subjects 18 years or older, at the time of signing informed consent • 3. BMI 20-45 kg/m^2 • 4. […] Value of Fibroscan® ≥7 kPa • OR • b. MRE ≥2.75 kPa • *Clinical diagnosis of NASH was defined in this clinical trial as the existence of one or more of the following risk factors for NASH, namely: • a. Type 2 diabetes or elevated fasting blood sugar • b. Abdominal obesity • c. Elevated lipid levels, especially elevated levels of serum triglycerides • d. Hypertension, or • e. Low levels of HDL cholesterol • 5. For serum transaminases, ALT concentration for all patients at the time of screening was >1 and <5 times upper limit of normal (ULN) of the central lab in the absence of another cause of liver disease. If a patient had lab records in the past 6 months, ALT concentrations were <20 U/L female and <30 U/L male. AST concentration for all patients at the time of screening was <5× ULN • 6. […] Platelet counts ≥120,000/mm^3 • 8. Female subjects were eligible for the study if they met the following criteria: • Are not pregnant or nursing • Women of child-bearing potential (defined as females who are not surgically sterile or who are not over the age of 52 and amenorrheic for at least 12 months) must utilize appropriate birth control throughout the study duration. Acceptable methods that may be used are abstinence, birth control pills (“The Pill”) or patch, diaphragm, IUD (coil), vaginal ring, condom, surgical sterilization or progestin implant or injection, or sexual activity limited to a sterile (e.g., vasectomized) male partner • 9. Male participants agreed to consistently and correctly use a condom in combination with one of the above methods of birth control from enrollment to 30 days after the last dose of study medication • 10. Participants were able to comply with dosing and able to complete the study schedule of assessments

[2] = system: NASH patients with stage 1-3 fibrosis; assay: Phase 1b study in NASH patients: safety; type: in vivo, human; settings: 4 weeks oral
Description: A total of 63 patients completed the study with 21 patients per dose group (completion of MRI-PDFF measurement). 25HC3 S sodium was orally administered daily at 50 mg, 150 mg, or 600 mg (300 mg BID). […] Subjects provided written informed consent to participate in the study • 2. Males or females subjects 18 years or older, at the time of signing informed consent • 3. BMI 20-45 kg/m^2 • 4. […] Value of Fibroscan® ≥7 kPa • OR • b. MRE ≥2.75 kPa • *Clinical diagnosis of NASH was defined in this clinical trial as the existence of one or more of the following risk factors for NASH, namely: • a. Type 2 diabetes or elevated fasting blood sugar • b. Abdominal obesity • c. Elevated lipid levels, especially elevated levels of serum triglycerides • d. Hypertension, or • e. Low levels of HDL cholesterol • 5. For serum transaminases, ALT concentration for all patients at the time of screening was >1 and <5 times upper limit of normal (ULN) of the central lab in the absence of another cause of liver disease. If a patient had lab records in the past 6 months, ALT concentrations were <20 U/L female and <30 U/L male. AST concentration for all patients at the time of screening was <5× ULN • 6. […] Platelet counts ≥120,000/mm^3 • 8. […]

[3] = Single dose safety and pharmacokinetic study in subjects with NASH and control healthy subjects; type: in vivo, human
Description: The present Example was a randomized, dose ranging, single dose safety and pharmacokinetic study of 25HC3S administered to subjects with NASH and control healthy subjects. […] For each cohort, 10 subjects with NASH were enrolled which were further classified into cirrhotic and non-cirrhotic. Each subject received only one dose of study treatment. The second cohort was dosed after a review of safety and tolerability data from Cohort 1.

[4] = system: NASH patients; settings: between 50 mg and 200 mg oral dose levels; cited from earlier work
[5] = Phase 1b study in NASH patients: pharmacokinetics; type: in vivo, human; settings: for CL/F: NASH patients, mean
Description: as §1
The pharmacokinetics of administered 25HC3 S was determined.

[6] = Metabolite profiling of plasma, urine and feces after intravenous dose in rats; type: in vivo, Sprague Dawley rats; settings: intravenous 10 mg/kg, up to 1 hour postdose
Description: Nine male Sprague Dawley rats (Group 1) were designated for the pharmacokinetic phase, 3 male Sprague Dawley rats (Group 2) for the excretion mass balance phase, and 7 male Sprague Dawley rats (Group 3) and 9 male Long Evans rats (Group 4) for the tissue distribution phase. All animals received a single intravenous dose of [^14C]-25HC3S at 10 mg/kg and a target radioactivity of 225 μCi/kg. Blood samples were collected from all Group 1 animals at approximately 0.083, 0.25, 0.5, 1, 2, 4, 8, 12, 24, 48, and 72 hours post-dose. Urine and feces were collected from all Group 2 animals periodically through 168 hours post-dose. […] Following blood collection, animals were euthanized by CO2 inhalation and carcasses frozen in a dry ice/hexane bath for processing by quantitative whole body autoradiography. Whole blood, plasma, urine, feces, cage rinse, and cage wash were analyzed for total radioactivity by liquid scintillation counting.
Plasma pools were made from Group 1 rats at the 0.083, 0.25, 0.5, and 1-hour collection time points.
Urine pools were prepared for Group 2 at 0 to 6 and 6 to 12 hours postdose. The largest component present was attributed to the parent 25HC3 S representing about 78% to 93% of the radioactivity. […]

[7] = 50 mg QD, 4 weeks oral, patients with ≥10% reduction in MRI-PDFF, Day 28 vs baseline
[8] = 50 mg QD, 4 weeks oral, patients with ≥10% reduction in MRI-PDFF, Day 28 vs baseline, listed as 25HC3 S
[9] = 300 mg BID, 4 weeks oral, patients with ≥10% reduction in MRI-PDFF, Day 28 vs baseline
[10] = 300 mg BID, 4 weeks oral, patients with ≥10% reduction in MRI-PDFF, Day 28 vs baseline, listed as 25HC3 S
[11] = all on a statin except one outlier (n = 19)
[12] = all patients on a statin (n = 20)

- CL/F ([5]; 50 mg QD oral): 150.6 L/h
- dose dependence of PK parameters ([5]; 50 mg, 150 mg, 600 mg daily): dose dependent
- CL/F ([5]; 150 mg QD oral): 176.6 L/h
- CL/F ([5]; 300 mg BID oral): 166.2 L/h
- PK parameters after repeat dosing versus single dose ([5]; 4-week daily oral dosing): comparable to those after a single dose
- share of the exposure (AUC) to related radioactivity in plasma [6]: approximately 54%
SMILES: C[C@H](CCCC(C)(C)O)[C@H]1CC[C@H]2[C@@H]3CC=C4C[C@@H](OS(=O)(=O)O)CC[C@]4(C)[C@H]3CC[C@]12C [25HC3S, 5-cholesten-3,25-diol, 3-sulfate]
- Non-HDL-C, median change ([1]; 50 mg QD, 4 weeks oral, all patients, Day 28 vs baseline): −8%
- APRI score, median change [1, 7]: −27%***
- AST, median change [1, 7]: −24%**
- FIB-4 score, median change [1, 7]: −19%**
- GGT, median change [1, 7]: −13%***
- APRI score, median change [1, 8]: −27%
- AST, median change [1, 8]: −24%
- FIB-4 score, median change [1, 8]: −19%
- GGT, median change [1, 8]: −13%
- GGT, median change ([1]; 150 mg QD, 4 weeks oral, all patients, Day 28 vs baseline): −1%
- APRI score, median change [1, 9]: −36%***
- AST, median change [1, 9]: −39%***
- FIB-4 score, median change [1, 9]: −21%***
- APRI score, median change [1, 10]: −36%
- AST, median change [1, 10]: −39%
- FIB-4 score, median change [1, 10]: −21%
- Mean Non-HDL to Baseline [1, 11]: −11%
- Mean TG to Baseline [1, 11]: −10%
- Median Non-HDL to Baseline [1, 11]: −10%
- Median TG to Baseline [1, 11]: −9%
- Mean Non-HDL to Baseline [1, 12]: −9%
- Mean TG to Baseline [1, 12]: −2%
- Median Non-HDL to Baseline [1, 12]: −9%
- Median TG to Baseline [1, 12]: −6%
- enzyme levels (e.g., ALT, AST, GGT) ([1]; high dose (300 mg BID)): improved enzyme levels
- patients who showed ≥10% liver fat reduction from baseline as measured by MRI-PDFF ([1]; in each dose group (50 mg, 150 mg, 600 mg daily), after 4-week dosing): 43%
- serum triglycerides, median reduction from baseline ([1]; patients with elevated baseline triglycerides (≥200 mg/dL; n=16) across all dose groups, day 28): −24%
- reduction in serum triglycerides ([1]; patients with elevated baseline triglycerides (≥200 mg/dL; n=16) across all dose groups, day 28 from baseline): 24%
- tolerability ([2]; all three doses (50 mg, 150 mg, 600 mg daily)): well tolerated
- drug related serious adverse events ([2]; all three doses): no drug related serious adverse events observed
- difference between healthy and NASH subjects in pharmacokinetics (Cmax and AUC) ([3]; 50 mg and 200 mg): no clear difference
- increase of AUC0-last, AUCinf and Cmax with increasing dose ([3]; 50 mg to 200 mg): less than proportional
- geometric mean AUC0-12 and AUC0-last, NASH versus healthy subjects ([3]; Cohort 1 (50 mg)): similar
- AUC0-inf, higher in NASH subjects than healthy ([3]; Cohort 2 (200 mg)): approximately 20%
- increase of geometric mean Cmax in NASH subjects over healthy subjects ([3]; Cohorts 1 and 2): 18-24%
- increase in both Cmax and AUC parameters for a four-fold increase in dose ([3]; NASH subjects, 50 mg to 200 mg): three-fold
- increase in mean Cmax for a four-fold increase in dose ([3]; healthy subjects, 50 mg to 200 mg): three-fold
- Mean % AUCexp ([3]; human, in vivo): low
- dose-dependent changes of biological responses [4]: no dose-dependent changes of biological responses
